In the kinase profiling compilation of Christmann-Franck et al. (2016):

Tests used:
Test in all cases: KINOMEscan competition binding
Details in all cases: compound 10.0 µM
STK24 (human) = STK24 (human) (UniProt Q9Y6E0)
CSNK1G2 (human) = CSNK1G2 (human) (UniProt P78368)
DDR1 (human) = DDR1 (human) (UniProt Q08345)
MAP4K2 (human) = MAP4K2 (human) (UniProt Q12851)
MAPK13 (human) = MAPK13 (human) (UniProt O15264)
MYLK (human) = MYLK (human) (UniProt Q15746)
ULK3 (human) = ULK3 (human) (UniProt Q6PHR2)
CAMK1D (human) = CAMK1D (human) (UniProt Q8IU85)
STK39 (human) = STK39 (human) (UniProt Q9UEW8)
CHEK1 (human) = CHEK1 (human) (UniProt O14757)
CAMK2D (human) = CAMK2D (human) (UniProt Q13557)
CAMK2D (human), sequence (Q13557 whole entry, looked up): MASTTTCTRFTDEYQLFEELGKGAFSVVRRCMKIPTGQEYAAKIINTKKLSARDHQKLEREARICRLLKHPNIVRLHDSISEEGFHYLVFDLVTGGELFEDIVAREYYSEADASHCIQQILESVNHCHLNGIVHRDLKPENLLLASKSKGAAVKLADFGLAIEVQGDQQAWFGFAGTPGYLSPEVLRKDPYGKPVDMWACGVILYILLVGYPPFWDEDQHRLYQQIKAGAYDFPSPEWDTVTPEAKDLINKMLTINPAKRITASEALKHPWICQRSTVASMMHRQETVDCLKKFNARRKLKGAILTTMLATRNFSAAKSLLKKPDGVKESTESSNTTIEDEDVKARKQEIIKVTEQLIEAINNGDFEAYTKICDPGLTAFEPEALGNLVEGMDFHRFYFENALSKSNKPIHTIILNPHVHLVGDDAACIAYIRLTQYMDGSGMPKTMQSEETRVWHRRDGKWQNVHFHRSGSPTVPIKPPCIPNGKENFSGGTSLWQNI

MAP3K13 (human) = MAP3K13 (human) (UniProt O43283)
PRKCD (human) = PRKCD (human) (UniProt Q05655)
HIPK1 (human) = HIPK1 (human) (UniProt Q86Z02)
BRSK2 (human) = BRSK2 (human) (UniProt Q8IWQ3)
STK4 (human) = STK4 (human) (UniProt Q13043)
STK4 (human), sequence (Q13043 whole entry, looked up): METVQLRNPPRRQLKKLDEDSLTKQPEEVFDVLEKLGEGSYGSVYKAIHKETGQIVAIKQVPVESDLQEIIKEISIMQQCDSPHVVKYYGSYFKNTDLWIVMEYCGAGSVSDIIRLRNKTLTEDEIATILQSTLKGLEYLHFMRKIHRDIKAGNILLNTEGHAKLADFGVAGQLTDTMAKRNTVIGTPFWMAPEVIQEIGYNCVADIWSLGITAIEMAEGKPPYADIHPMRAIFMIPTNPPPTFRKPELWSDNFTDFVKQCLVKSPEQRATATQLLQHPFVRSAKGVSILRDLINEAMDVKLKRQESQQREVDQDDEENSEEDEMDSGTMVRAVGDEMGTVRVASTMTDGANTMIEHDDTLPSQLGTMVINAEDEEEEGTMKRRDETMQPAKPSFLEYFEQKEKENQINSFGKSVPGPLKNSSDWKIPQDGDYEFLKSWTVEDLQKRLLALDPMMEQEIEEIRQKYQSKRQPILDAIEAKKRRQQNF

MAP3K6 (human) = MAP3K6 (human) (UniProt O95382)
MAP3K6 (human), sequence (O95382 whole entry, looked up): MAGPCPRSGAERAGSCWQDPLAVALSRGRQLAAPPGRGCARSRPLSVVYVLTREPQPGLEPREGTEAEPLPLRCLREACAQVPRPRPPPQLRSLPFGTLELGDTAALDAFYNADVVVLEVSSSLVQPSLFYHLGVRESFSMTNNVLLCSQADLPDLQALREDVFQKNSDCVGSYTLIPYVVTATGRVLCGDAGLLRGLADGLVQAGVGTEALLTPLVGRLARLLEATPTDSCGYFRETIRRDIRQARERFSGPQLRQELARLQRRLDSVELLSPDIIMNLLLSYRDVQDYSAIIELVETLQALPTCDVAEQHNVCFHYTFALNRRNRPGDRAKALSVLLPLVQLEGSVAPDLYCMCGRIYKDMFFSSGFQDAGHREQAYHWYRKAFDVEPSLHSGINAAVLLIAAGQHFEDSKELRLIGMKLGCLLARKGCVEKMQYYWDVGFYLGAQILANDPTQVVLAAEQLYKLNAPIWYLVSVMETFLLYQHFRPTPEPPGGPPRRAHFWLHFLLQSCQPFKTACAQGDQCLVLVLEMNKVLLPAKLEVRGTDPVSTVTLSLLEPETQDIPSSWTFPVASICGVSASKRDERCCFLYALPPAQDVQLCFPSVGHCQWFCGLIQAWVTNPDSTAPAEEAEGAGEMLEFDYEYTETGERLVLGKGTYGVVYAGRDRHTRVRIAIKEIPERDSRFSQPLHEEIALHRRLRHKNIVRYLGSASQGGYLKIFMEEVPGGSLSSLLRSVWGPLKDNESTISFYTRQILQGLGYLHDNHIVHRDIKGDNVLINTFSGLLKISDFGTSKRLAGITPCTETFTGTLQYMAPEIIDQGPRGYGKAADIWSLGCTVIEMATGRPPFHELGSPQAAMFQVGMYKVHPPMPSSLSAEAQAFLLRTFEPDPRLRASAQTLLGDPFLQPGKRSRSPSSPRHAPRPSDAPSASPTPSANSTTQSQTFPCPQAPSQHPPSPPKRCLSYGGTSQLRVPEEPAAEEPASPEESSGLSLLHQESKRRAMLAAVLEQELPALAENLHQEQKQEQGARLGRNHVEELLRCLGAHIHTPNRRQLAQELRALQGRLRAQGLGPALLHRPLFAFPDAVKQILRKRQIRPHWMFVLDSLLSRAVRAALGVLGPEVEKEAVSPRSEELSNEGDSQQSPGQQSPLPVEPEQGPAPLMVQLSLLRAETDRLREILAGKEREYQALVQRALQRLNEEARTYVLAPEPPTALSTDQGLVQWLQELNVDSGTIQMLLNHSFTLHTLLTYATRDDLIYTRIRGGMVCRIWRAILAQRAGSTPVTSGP

TAOK2 (human) = TAOK2 (human) (UniProt Q9UL54)
MELK (human) = MELK (human) (UniProt Q14680)
STK32B (human) = STK32B (human) (UniProt Q9NY57)
HUNK (human) = HUNK (human) (UniProt P57058)
CLK4 (human) = CLK4 (human) (UniProt Q9HAZ1)
CLK4 (human), sequence (Q9HAZ1 whole entry, looked up): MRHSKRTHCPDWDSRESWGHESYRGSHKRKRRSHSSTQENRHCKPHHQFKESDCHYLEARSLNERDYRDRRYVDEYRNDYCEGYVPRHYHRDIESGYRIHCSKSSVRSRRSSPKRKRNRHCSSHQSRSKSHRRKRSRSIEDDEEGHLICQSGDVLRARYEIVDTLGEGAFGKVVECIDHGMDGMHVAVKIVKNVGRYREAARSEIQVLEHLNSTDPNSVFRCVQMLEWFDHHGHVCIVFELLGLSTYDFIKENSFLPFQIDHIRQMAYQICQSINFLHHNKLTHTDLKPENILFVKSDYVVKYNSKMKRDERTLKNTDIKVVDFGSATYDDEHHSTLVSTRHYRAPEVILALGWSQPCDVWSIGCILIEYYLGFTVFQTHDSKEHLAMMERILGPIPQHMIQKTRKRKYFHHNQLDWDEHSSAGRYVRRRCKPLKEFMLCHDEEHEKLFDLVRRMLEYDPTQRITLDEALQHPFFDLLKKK

GRK1 (human) = GRK1 (human) (UniProt Q15835)
CDC2L2 (human) = CDC2L2 (human) (UniProt Q9UQ88)
PAK1 (human) = PAK1 (human) (UniProt Q13153)
STK32A (human) = STK32A (human) (UniProt Q8WU08)
MAP3K9 (human) = MAP3K9 (human) (UniProt P80192)
STK38 (human) = STK38 (human) (UniProt Q15208)
RPS6KA1 KD2 (human) = RPS6KA1 KD2 (human) (UniProt Q15418)
RPS6KA1 KD2 (human), sequence (Q15418 whole entry, looked up): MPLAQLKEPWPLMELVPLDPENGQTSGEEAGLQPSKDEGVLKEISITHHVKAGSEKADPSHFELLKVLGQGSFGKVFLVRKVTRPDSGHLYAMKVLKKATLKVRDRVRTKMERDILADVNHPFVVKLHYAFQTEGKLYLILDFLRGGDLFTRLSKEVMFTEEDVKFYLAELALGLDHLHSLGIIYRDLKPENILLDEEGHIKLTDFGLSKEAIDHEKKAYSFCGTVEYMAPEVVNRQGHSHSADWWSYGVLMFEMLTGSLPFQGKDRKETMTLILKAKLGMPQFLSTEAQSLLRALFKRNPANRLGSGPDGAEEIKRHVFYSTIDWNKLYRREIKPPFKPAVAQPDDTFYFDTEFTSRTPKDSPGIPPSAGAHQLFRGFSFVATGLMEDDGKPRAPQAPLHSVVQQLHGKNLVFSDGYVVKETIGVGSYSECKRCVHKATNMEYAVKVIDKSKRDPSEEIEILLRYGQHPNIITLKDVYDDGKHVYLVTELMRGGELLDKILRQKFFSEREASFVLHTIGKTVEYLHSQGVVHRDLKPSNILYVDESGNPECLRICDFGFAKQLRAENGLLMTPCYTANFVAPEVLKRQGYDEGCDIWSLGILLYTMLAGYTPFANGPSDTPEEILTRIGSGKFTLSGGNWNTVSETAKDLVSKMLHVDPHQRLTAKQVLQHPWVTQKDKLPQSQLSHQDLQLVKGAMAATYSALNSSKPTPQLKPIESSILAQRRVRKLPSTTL

CDK9 (human) = CDK9 (human) (UniProt P50750)
PTK6 (human) = PTK6 (human) (UniProt Q13882)
CLK1 (human) = CLK1 (human) (UniProt P49759)
CLK1 (human), sequence (P49759 whole entry, looked up): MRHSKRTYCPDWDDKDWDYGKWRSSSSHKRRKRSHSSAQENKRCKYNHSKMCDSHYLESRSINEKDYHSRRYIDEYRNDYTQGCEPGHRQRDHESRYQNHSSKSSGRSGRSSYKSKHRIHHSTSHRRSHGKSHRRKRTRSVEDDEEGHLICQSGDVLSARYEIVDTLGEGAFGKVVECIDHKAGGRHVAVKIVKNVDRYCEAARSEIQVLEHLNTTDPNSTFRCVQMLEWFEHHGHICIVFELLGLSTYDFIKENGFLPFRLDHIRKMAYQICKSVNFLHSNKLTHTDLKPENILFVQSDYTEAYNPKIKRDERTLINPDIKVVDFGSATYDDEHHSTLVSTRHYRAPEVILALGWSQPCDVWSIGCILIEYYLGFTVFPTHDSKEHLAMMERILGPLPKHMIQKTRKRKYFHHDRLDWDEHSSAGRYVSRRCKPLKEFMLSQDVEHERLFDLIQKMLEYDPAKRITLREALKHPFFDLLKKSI

KDR (human) = KDR (human) (UniProt P35968)
MAP4K4 (human) = MAP4K4 (human) (UniProt O95819)
PKN1 (human) = PKN1 (human) (UniProt Q16512)
CDKL3 (human) = CDKL3 (human) (UniProt Q8IVW4)
BLK (human) = BLK (human) (UniProt P51451)
FGFR2 (human) = FGFR2 (human) (UniProt P21802)
CDK15 (human) = CDK15 (human) (UniProt Q96Q40)
PRKCQ (human) = PRKCQ (human) (UniProt Q04759)

STK24 (human), sequence (Q9Y6E0 whole entry, looked up): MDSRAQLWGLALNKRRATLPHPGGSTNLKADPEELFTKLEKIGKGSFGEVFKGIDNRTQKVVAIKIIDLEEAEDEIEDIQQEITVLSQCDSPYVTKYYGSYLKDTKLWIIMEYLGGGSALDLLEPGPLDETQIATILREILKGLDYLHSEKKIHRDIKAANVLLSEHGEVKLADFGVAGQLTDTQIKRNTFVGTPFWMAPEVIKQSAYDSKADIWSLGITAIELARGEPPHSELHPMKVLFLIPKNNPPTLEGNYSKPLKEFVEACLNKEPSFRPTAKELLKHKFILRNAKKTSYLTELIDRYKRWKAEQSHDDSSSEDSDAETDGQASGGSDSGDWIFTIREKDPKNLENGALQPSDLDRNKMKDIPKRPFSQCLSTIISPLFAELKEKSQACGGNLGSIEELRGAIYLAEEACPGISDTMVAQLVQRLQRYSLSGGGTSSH
MAPK13 (human), sequence (O15264 whole entry, looked up): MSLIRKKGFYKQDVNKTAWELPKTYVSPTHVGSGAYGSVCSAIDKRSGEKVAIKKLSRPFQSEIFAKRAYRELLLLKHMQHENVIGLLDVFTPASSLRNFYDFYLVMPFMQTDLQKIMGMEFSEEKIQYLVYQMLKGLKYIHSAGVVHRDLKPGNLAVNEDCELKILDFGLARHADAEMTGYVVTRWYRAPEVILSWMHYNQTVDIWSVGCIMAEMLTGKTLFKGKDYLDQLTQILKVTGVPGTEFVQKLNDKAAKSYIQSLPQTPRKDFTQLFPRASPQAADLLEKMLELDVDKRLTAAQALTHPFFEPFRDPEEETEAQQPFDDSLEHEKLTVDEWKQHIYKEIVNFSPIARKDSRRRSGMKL

Structure (SMILES) | kinase still bound, per cent of control (STK24 (human)) [%] | kinase still bound, per cent of control (CSNK1G2 (human)) [%] | kinase still bound, per cent of control (DDR1 (human)) [%] | kinase still bound, per cent of control (MAP4K2 (human)) [%] | kinase still bound, per cent of control (MAPK13 (human)) [%] | kinase still bound, per cent of control (MYLK (human)) [%] | kinase still bound, per cent of control (ULK3 (human)) [%] | kinase still bound, per cent of control (CAMK1D (human)) [%] | kinase still bound, per cent of control (STK39 (human)) [%] | kinase still bound, per cent of control (CHEK1 (human)) [%] | kinase still bound, per cent of control (CAMK2D (human)) [%] | kinase still bound, per cent of control (MAP3K13 (human)) [%] | kinase still bound, per cent of control (PRKCD (human)) [%] | kinase still bound, per cent of control (HIPK1 (human)) [%] | kinase still bound, per cent of control (BRSK2 (human)) [%] | kinase still bound, per cent of control (STK4 (human)) [%] | kinase still bound, per cent of control (MAP3K6 (human)) [%] | kinase still bound, per cent of control (TAOK2 (human)) [%] | kinase still bound, per cent of control (MELK (human)) [%] | kinase still bound, per cent of control (STK32B (human)) [%] | further results
COc1cc2ncn(-c3cc(OCc4ccccc4C(F)(F)F)c(C(N)=O)s3)c2cc1OC | 87 | 100 | 100 | 53 | 100 | 50 | 77 | 100 | 89 | 100 | 75 | 100 | 100 | 84 | 31 | 56 | 84 | 100 | 61 | 100 | kinase still bound, per cent of control (HUNK (human)): 82%; kinase still bound, per cent of control (CLK4 (human)): 45%; kinase still bound, per cent of control (GRK1 (human)): 96%; kinase still bound, per cent of control (CDC2L2 (human)): 99%; kinase still bound, per cent of control (PAK1 (human)): 100%; kinase still bound, per cent of control (STK32A (human)): 82%; kinase still bound, per cent of control (MAP3K9 (human)): 71%; kinase still bound, per cent of control (STK38 (human)): 94%; kinase still bound, per cent of control (RPS6KA1 KD2 (human)): 63%; kinase still bound, per cent of control (CDK9 (human)): 100%; kinase still bound, per cent of control (PTK6 (human)): 84%; kinase still bound, per cent of control (CLK1 (human)): 36%; kinase still bound, per cent of control (KDR (human)): 76%; kinase still bound, per cent of control (MAP4K4 (human)): 53%; kinase still bound, per cent of control (PKN1 (human)): 76%; kinase still bound, per cent of control (CDKL3 (human)): 100%
O=c1cc(N2CCOCC2)oc2c(-c3cccc4c3sc3ccccc34)cccc12 | 86 | 85 | 100 | 100 | 99 | 91 | 64 | 68 | 100 | 100 | 80 | 100 | 80 | 93 | 100 | 98 | 100 | 98 | 100 | 95 | kinase still bound, per cent of control (BLK (human)): 100%; kinase still bound, per cent of control (FGFR2 (human)): 82%; kinase still bound, per cent of control (CDK15 (human)): 85%; kinase still bound, per cent of control (HUNK (human)): 75%; kinase still bound, per cent of control (CLK4 (human)): 95%; kinase still bound, per cent of control (PRKCQ (human)): 100%; kinase still bound, per cent of control (GRK1 (human)): 100%; kinase still bound, per cent of control (CDC2L2 (human)): 100%; kinase still bound, per cent of control (PAK1 (human)): 71%; kinase still bound, per cent of control (STK32A (human)): 100%; kinase still bound, per cent of control (MAP3K9 (human)): 100%; kinase still bound, per cent of control (STK38 (human)): 100%; kinase still bound, per cent of control (RPS6KA1 KD2 (human)): 75%; kinase still bound, per cent of control (CDK9 (human)): 98%; kinase still bound, per cent of control (PTK6 (human)): 98%; kinase still bound, per cent of control (CLK1 (human)): 89%; kinase still bound, per cent of control (KDR (human)): 100%; kinase still bound, per cent of control (MAP4K4 (human)): 100%; kinase still bound, per cent of control (PKN1 (human)): 100%; kinase still bound, per cent of control (CDKL3 (human)): 100%
CNC(=O)c1cc(Oc2ccc(NC(=O)Nc3ccc(Cl)c(C(F)(F)F)c3)cc2)ccn1 | 97 | 94 | 0 | 100 | 7.6 | 83 | 92 | 96 | 100 | 91 | 95 | 100 | 100 | 13 | 85 | 81 | 100 | 1.6 | 100 | 100 | kinase still bound, per cent of control (BLK (human)): 31%; kinase still bound, per cent of control (FGFR2 (human)): 14%; kinase still bound, per cent of control (CDK15 (human)): 19%; kinase still bound, per cent of control (HUNK (human)): 70%; kinase still bound, per cent of control (CLK4 (human)): 52%; kinase still bound, per cent of control (PRKCQ (human)): 84%; kinase still bound, per cent of control (GRK1 (human)): 100%; kinase still bound, per cent of control (CDC2L2 (human)): 85%; kinase still bound, per cent of control (PAK1 (human)): 62%; kinase still bound, per cent of control (STK32A (human)): 100%; kinase still bound, per cent of control (MAP3K9 (human)): 88%; kinase still bound, per cent of control (STK38 (human)): 85%; kinase still bound, per cent of control (RPS6KA1 KD2 (human)): 100%; kinase still bound, per cent of control (CDK9 (human)): 81%; kinase still bound, per cent of control (PTK6 (human)): 100%; kinase still bound, per cent of control (CLK1 (human)): 23%; kinase still bound, per cent of control (MAP4K4 (human)): 18%; kinase still bound, per cent of control (PKN1 (human)): 99%; kinase still bound, per cent of control (CDKL3 (human)): 0.6%
